Measurements published in patent US8946154B2 (BCN Peptides, S.A., priority 2009, dated 2015).
Numbered stars: 1 amine (or outer) side, 2 acyl side, 3 side chain; on linkers, the order of the positions; unused ones are H or OH. Bridge positions count the residues as written; N and C are the ends. Square brackets hold non-standard residues; d marks the D form. Side chains are listed from the residue outwards. Peptide text beside a SMILES is read from it. * marks the point of attachment. Ethylenediamine = C(CN[*:2])N[*:1]; Hyp = O=C(O)[C@@H]1C[C@@H](O)CN1; Phg = N[C@H](C(=O)O)c1ccccc1; CO = O=C([*:1])[*:2]; Bn = c1ccc(C*)cc1

Assays:
[1] = Stability in 90% human serum
Description: The new compounds were incubated with 90% human serum at 37° C. Aliquots were extracted at different incubation times. Acetonitrile was added to precipitate the proteins from the serum, it was centrifuged and the supernatant was filtered and injected in the RP-HPLC (Grad: 20-80% B in 30 min, B=0.07% TFA in acetonitrile). The disappearance of the initial product was analyzed using the area corresponding to the initial product and the half-life time was calculated.

[2] = target: sstr1 receptor (Homo sapiens, UniProt P30872); conditions: literature, background; cited from earlier work
[3] = target: sstr2 receptor (Homo sapiens, UniProt P30874); conditions: literature, background; cited from earlier work
[4] = target: sstr3 receptor (Homo sapiens, UniProt P32745); conditions: literature, background; cited from earlier work
[5] = target: sstr4 receptor (Homo sapiens, UniProt P31391); conditions: literature, background; cited from earlier work
sstr4 receptor, sequence (P31391 whole entry): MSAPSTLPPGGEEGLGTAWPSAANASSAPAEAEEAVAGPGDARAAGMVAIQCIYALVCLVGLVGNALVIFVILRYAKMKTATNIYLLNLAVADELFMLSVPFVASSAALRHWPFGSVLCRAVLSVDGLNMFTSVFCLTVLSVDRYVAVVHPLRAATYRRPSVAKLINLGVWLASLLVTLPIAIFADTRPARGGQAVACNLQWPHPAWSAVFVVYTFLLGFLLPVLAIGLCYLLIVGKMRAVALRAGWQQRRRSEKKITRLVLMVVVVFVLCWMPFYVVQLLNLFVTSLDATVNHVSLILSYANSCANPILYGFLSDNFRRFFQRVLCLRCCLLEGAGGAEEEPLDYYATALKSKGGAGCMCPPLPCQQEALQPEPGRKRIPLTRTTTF

sstr1 receptor, sequence (P30872 whole entry): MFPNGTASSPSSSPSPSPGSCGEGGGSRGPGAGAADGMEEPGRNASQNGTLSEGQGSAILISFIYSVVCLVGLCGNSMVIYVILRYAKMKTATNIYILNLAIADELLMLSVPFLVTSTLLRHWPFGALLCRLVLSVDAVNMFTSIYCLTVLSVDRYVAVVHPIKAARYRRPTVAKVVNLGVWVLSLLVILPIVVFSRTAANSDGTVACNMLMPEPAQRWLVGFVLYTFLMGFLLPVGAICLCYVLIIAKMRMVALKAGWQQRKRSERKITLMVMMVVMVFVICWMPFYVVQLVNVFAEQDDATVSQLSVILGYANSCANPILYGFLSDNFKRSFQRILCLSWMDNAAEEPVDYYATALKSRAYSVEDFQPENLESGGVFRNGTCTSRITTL
sstr2 receptor, sequence (P30874 whole entry): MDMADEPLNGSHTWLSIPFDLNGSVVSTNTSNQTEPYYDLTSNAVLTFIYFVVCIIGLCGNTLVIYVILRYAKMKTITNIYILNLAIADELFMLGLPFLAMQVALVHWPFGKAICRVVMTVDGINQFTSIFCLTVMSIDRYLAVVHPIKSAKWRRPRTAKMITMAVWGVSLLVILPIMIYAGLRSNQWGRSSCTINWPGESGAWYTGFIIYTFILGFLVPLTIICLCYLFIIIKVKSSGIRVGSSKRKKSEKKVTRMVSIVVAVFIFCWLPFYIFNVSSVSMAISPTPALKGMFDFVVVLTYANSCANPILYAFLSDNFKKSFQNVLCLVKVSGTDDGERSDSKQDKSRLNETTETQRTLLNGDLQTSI
sstr3 receptor, sequence (P32745 whole entry): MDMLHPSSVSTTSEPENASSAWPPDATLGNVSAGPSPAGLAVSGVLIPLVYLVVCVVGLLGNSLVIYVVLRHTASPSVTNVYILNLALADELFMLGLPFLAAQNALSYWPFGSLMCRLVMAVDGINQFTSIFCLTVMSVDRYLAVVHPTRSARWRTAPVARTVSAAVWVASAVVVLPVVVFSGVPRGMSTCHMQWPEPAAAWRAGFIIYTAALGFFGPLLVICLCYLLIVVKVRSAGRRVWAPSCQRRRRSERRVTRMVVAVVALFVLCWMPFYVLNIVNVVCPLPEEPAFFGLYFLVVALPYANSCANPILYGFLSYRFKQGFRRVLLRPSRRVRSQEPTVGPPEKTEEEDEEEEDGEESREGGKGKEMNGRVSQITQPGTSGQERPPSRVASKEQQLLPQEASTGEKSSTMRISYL

SMILES | half-life [1] | affinity for the sstr1 receptor [2] | affinity for the sstr2 receptor [3] | affinity for the sstr3 receptor [4] | affinity for the sstr4 receptor [5]
CCCCCCCCCCCCCCCC(=O)NCCCC[C@@H]1NC(=O)[C@@H](NC(=O)CNC(=O)[C@H](C)N)CSSC[C@@H](C(=O)O)NC(=O)[C@H](CO)NC(=O)[C@H]([C@@H](C)O)NC(=O)[C@H](Cc2ccccc2)NC(=O)[C@H]([C@@H](C)O)NC(=O)[C@H](CCCCN)NC(=O)[C@H](Cc2c[nH]c3ccccc23)NC(=O)[C@H](Cc2ccccc2)NC(=O)[C@H](Cc2ccccc2)NC(=O)[C@H](CC(N)=O)NC1=O [Compound 21] | 41.7 h |  |  |  | 
Cc1cc(C)c(C[C@@H]2NC(=O)[C@H](CC(N)=O)NC(=O)[C@H](CCCCN)NC(=O)[C@@H](NC(=O)CNC(=O)[C@H](C)N)CSSC[C@@H](C(=O)O)NC(=O)[C@H](CO)NC(=O)[C@H]([C@@H](C)O)NC(=O)[C@H](Cc3ccccc3)NC(=O)[C@H]([C@@H](C)O)NC(=O)[C@H](CCCCN)NC(=O)[C@@H](Cc3c[nH]c4ccccc34)NC(=O)[C@H](Cc3ccccc3)NC2=O)c(C)c1 [Compound 24] | 26.2 h |  |  |  | 
Cc1cc(C)c(C[C@@H]2NC(=O)[C@H](Cc3ccccc3)NC(=O)[C@H](CC(N)=O)NC(=O)[C@H](CCCCN)NC(=O)[C@@H](NC(=O)CNC(=O)[C@H](C)N)CSSC[C@@H](C(=O)O)NC(=O)[C@H](CO)NC(=O)[C@H]([C@@H](C)O)NC(=O)[C@H](Cc3ccccc3)NC(=O)[C@H]([C@@H](C)O)NC(=O)[C@H](CCCCN)NC(=O)[C@@H](Cc3c[nH]c4ccccc34)NC2=O)c(C)c1 [Compound 25] | 24.6 h |  |  |  | 
Cc1cc(C)c(C[C@@H]2NC(=O)[C@H]([C@@H](C)O)NC(=O)[C@H](CCCCN)NC(=O)[C@@H](Cc3c[nH]c4ccccc34)NC(=O)[C@H](Cc3ccccc3)NC(=O)[C@H](Cc3ccccc3)NC(=O)[C@H](CC(N)=O)NC(=O)[C@H](CCCCN)NC(=O)[C@@H](NC(=O)CNC(=O)[C@H](C)N)CSSC[C@@H](C(=O)O)NC(=O)[C@H](CO)NC(=O)[C@H]([C@@H](C)O)NC2=O)c(C)c1 [Compound 26] | 41 h |  |  |  | 
Cc1cc(C)c(C[C@@H]2NC(=O)[C@H](CC(N)=O)NC(=O)[C@H](CCCCN)NC(=O)[C@@H](NC(=O)CNC(=O)[C@H](C)N)CSSC[C@@H](C(=O)O)NC(=O)[C@H](CO)NC(=O)[C@H]([C@@H](C)O)NC(=O)[C@H](Cc3ccccc3)NC(=O)[C@H]([C@@H](C)O)NC(=O)[C@H](CCCCN)NC(=O)[C@H](Cc3c[nH]c4ccccc34)NC(=O)[C@H](Cc3c(C)cc(C)cc3C)NC2=O)c(C)c1 [Compound 27] | 43.9 h |  |  |  | 
Cc1cc(C)c(C[C@@H]2NC(=O)[C@H](CC(N)=O)NC(=O)[C@H](CCCCN)NC(=O)[C@@H](NC(=O)CNC(=O)[C@H](C)N)CSSC[C@@H](C(=O)O)NC(=O)[C@H](CO)NC(=O)[C@H]([C@@H](C)O)NC(=O)[C@H](Cc3c(C)cc(C)cc3C)NC(=O)[C@H]([C@@H](C)O)NC(=O)[C@H](CCCCN)NC(=O)[C@H](Cc3c[nH]c4ccccc34)NC(=O)[C@H](Cc3c(C)cc(C)cc3C)NC2=O)c(C)c1 [Compound 30] | 93.3 h |  |  |  | 
CC(C)[C@@H]1NC(=O)[C@H](CCCCN)NC(=O)[C@@H](Cc2c[nH]c3ccccc23)NC(=O)[C@H](Cc2ccc(O)cc2)NC(=O)[C@@H](NC(=O)[C@H](N)Cc2ccc3ccccc3c2)CSSC[C@@H](C(=O)N[C@H](C(N)=O)[C@@H](C)O)NC1=O [lanreotide] |  | do not bind | high affinity | moderate-low affinity | do not bind
C[C@@H](O)[C@@H]1NC(=O)[C@H](CCCCN)NC(=O)[C@@H](Cc2c[nH]c3ccccc23)NC(=O)[C@H](Cc2ccccc2)NC(=O)[C@@H](NC(=O)[C@H](N)Cc2ccccc2)CSSC[C@@H](C(=O)N[C@H](CO)[C@@H](C)O)NC1=O [octreotide] |  | do not bind | high affinity | moderate-low affinity | do not bind
NCCCC[C@@H]1NC(=O)[C@@H](Cc2c[nH]c3ccccc23)NC(=O)[C@H](c2ccccc2)NC(=O)[C@@H]2C[C@@H](OC(=O)NCCN)CN2C(=O)[C@H](Cc2ccccc2)NC(=O)[C@H](Cc2ccc(OCc3ccccc3)cc2)NC1=O [pasireotide] (cyclo([Hyp]([CO-Ethylenediamine])[Phg][dW]KY(Bn)F)) |  |  | an order of magnitude lower |  | lost
CC(C)[C@@H]1NC(=O)[C@H](CCCCN)NC(=O)[C@@H](Cc2c[nH]c3ccccc23)NC(=O)[C@H](Cc2ccc(O)cc2)NC(=O)[C@@H](NC(=O)[C@H](N)Cc2ccccc2)CSSC[C@@H](C(=O)N[C@@H](Cc2c[nH]c3ccccc23)C(N)=O)NC1=O [vapreotide] (H-[dF]CY[dW]KVCW-NH2; disulfide 2-7) |  | do not bind | high affinity | moderate-low affinity | do not bind
